Experiment: physchem
Type: physicochemical
Settings: for half-life: 25% 1,4-dioxan
Protocol: The hydrolytic stability of the compounds of this invention was compared with representative examples of other phenoxy phthalides specifically described in Applicants' earlier EPA 145078. This property was evaluated by determining the half-life (in hours) at pH7.0 and 9.0 in 25% 1,4-dioxan at 39°C. The results of these tests are set out in Table I below, in which the test compounds are identified by reference to the substituent A in the following formula: [drawing 12] 'N.D.D.' = No detectable decomposition over a 200 hour period

Half-Life pH 7.0 (pH 7) | Half-Life pH 9.0 (pH 9) | half-life (pH 7) [h] | half-life (pH 9) [h] | SMILES
NDD | NDD |  |  | CCC1(CC)OC(=O)c2ccc(Oc3ccc(C(F)(F)F)cc3Cl)cc21 [C(C2H5)2, H, 5-(2'-Chloro-4'-trifluoromethylphenoxy)-3,3-diethylphthalide]
NDD | NDD |  |  | CC1(C)OC(=O)c2ccc(Oc3c(Cl)cc(C(F)(F)F)cc3Cl)cc21 [C(CH3)2, Cl]
 |  | 4920 | 1900 | CC1(C)OC(=O)c2ccc(Oc3ccc(C(F)(F)F)cc3Cl)cc21 [C(CH3)2, H, 5-(2'-Chloro-4'-trifluoromethylphenoxy)-3,3-dimethyl phthalide]
NDD | NDD |  |  | CCC1(C)OC(=O)c2ccc(Oc3ccc(C(F)(F)F)cc3Cl)cc21 (centres unmarked) [C(CH3)(C2H5), H]
 |  | 56.5 | 14.5 | O=C1OCc2cc(Oc3ccc(C(F)(F)F)cc3Cl)ccc21 [CH2, H, reference compound]
 |  | 1060 | 11 | CC1OC(=O)c2ccc(Oc3ccc(C(F)(F)F)cc3Cl)cc21 (centres unmarked) [CH(CH3), H, (2'-chloro-9'-trifluoro-methylphenoxy)-3-methyl phthalide, reference compound]
 |  | 17.2 | 1.2 | COC1OC(=O)c2ccc(Oc3ccc(C(F)(F)F)cc3Cl)cc21 (centres unmarked) [CH(OCH3), H, reference compound]
